Results reported in patent EP4775570A1, “CYP11A1 INHIBITOR, PREPARATION METHOD THEREFOR AND USE THEREOF” (Shenzhen Zhongge Biological Technology Co., Ltd., priority 2023, dated 2025).

Columns and labels:
hERG channels = target: T1, hERG channels (Homo sapiens, UniProt Q12809); test: hERG testing, manual whole cell patch clamp; assay type: cell-based; details: IC50, hERG tail current, room temperature (~25°C), 0.1-30 µM
T1 construct: host or cells: HEK293
Method: The cells used in this experiment were HEK293 cell lines transfected with hERG cDNA and stably expressing hERG channels (#60187, provided by BPS Bioscience Inc., P3-P23 generations were used in the experiment). The cells were cultured in a culture medium containing the following components: MEM medium, 10% (v/v) inactivated fetal bovine serum, 1 mM sodium pyruvate, 500µg/ml geneticin, 0.1mM non-essential amino acid, 100U/ml penicillin-streptomycin. HEK293 hERG cells were grown in petri dishes containing the aforementioned culture medium and cultured in an incubator at 37°C and 5% CO2, passaged approximately three times a week and maintained at a cell fusion rate between 40% and 80%. […]
The electrophysiological experiment was carried out using a manual patch clamp system (HEKA EPC-10 signal amplifier and digital conversion system, HEKA Electronics, Germany) to record the whole cell currents. […] Only when the hERG potassium current recorded in the previous step achieved stable state under continuous extracellular fluid perfusion within the recording chamber, could the compound to be tested be continuously perfused until the inhibitory effect of the compound on the hERG current reaches a stable state. […]

[1] = tested on: testosterone, progesterone, corticosterone; test: LC-MS detection of testosterone, progesterone and corticosterone in mouse tumors and adrenal glands; assay type: in vivo; details: VCaP model; for secretion of testosterone, progesterone and corticosterone in tumors and adrenal glands (in words): mouse tumors and adrenal glands
Source text: • Mouse tumors were homogenized using PBS in a 1:5 ratio (tumor weight (g): PBS volume (mL), w/v); • Mouse adrenal glands were homogenized using PBS in a 1:10 ratio (adrenal gland weight (g): PBS volume (mL), w/v); • Standard sample: testosterone (LGC, C17322500), progesterone (MCE, HY-N0437), adrenal ketone (MCE, HY-B1618), and standard solution of test substance.
Experiment procedures: since the three markers, i.e., testosterone, progesterone, and adrenal ketone, are all endogenous substances and present in the blank matrix as well, PBS was alternatively used as matrix in the production of the standard curve.
Testosterone: multiple reaction monitoring (MRM) method was used for detecting the concentrations of testosterone in mouse tumors and adrenal glands. Mass spectrum: AB Sciex Triple Quad 6500+; liquid chromatography: Shimadzu 40A, column: Waters XBridge BEH C18 2.5 µm 2.1*50mm, testosterone ion pair: 289.4/97.2. Both tumor and adrenal tissues were treated with methanol as precipitant and tolbutamide as internal standard for sample pretreatment, with linear range in 50-50,000pg/mL.
Progesterone and corticosterone: multi-reaction detection method (MRM) was used for detecting the concentrations of progesterone and corticosterone in mouse tumors and adrenal glands. Mass spectrum: AB Sciex Triple Quad 6500+; liquid chromatography: Shimadzu 40A, column: Waters XSelect HSS T3 2.5 µm 2.1*50mm, progesterone ion pair: 315.4/97.2, adrenone ion pair: 347.4/121.3. For tumor tissues, acetonitrile was used as precipitant and propranolol diclofenac as internal standard for sample pretreatment, with linear ranges in 0.05-10 ng/mL of progesterone and 0.10-20 ng/mL of corticosterone. For adrenal tissues, methanol was used as precipitant and propranolol diclofenac as internal standard for sample pretreatment, with linear ranges in 5-2,500 ng/mL of progesterone and 5-2,500 ng/mL of corticosterone.

T1 sequence (Q12809 whole entry): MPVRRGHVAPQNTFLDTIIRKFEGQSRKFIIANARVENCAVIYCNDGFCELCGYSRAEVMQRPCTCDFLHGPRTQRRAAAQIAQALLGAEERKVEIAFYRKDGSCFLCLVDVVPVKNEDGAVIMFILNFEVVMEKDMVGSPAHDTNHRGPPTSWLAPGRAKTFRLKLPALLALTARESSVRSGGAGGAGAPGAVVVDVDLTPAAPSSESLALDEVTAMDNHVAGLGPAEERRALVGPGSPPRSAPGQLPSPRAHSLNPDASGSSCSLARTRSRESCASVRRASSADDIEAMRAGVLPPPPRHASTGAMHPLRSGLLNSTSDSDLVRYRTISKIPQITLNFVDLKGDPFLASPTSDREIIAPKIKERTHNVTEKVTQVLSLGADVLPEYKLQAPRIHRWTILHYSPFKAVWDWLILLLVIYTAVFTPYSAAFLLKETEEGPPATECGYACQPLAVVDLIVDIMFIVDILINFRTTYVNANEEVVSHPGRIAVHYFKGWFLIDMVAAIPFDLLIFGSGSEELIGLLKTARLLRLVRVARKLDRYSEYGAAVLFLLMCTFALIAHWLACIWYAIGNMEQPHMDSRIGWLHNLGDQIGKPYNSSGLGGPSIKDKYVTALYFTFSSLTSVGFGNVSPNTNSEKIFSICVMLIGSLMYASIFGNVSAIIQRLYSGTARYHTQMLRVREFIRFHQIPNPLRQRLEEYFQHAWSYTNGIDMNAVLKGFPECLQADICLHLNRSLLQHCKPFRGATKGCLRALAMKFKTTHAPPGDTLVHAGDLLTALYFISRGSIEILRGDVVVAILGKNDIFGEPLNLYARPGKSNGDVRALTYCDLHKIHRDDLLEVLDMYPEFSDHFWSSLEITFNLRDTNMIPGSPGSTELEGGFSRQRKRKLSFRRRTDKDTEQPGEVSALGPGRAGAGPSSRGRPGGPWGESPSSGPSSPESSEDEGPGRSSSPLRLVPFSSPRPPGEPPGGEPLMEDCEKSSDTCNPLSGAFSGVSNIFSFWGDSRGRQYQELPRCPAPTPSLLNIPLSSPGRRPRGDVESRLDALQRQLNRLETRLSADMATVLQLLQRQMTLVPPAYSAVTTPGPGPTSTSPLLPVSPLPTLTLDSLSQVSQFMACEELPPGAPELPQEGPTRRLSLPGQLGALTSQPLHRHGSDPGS

## Cn1c(CN2Cc3ccccc3C2)c(F)cc(C=CC2CCN(C(=O)CC#N)CC2)c1=O [compound 112]
hERG channels
  IC50: > 30 µM

## COc1cc(CN2Cc3ccccc3C2)ccc1CCC1CCN(S(C)(=O)=O)CC1 [compound 53]
[1]; adrenal glands, fraction of the ODM-208 group
  concentration of progesterone in the adrenal glands, relative to ODM-208: 1/4
[1]
  secretion of testosterone, progesterone and corticosterone in tumors and adrenal glands (in words): significantly inhibited
[1]; tumors, fraction of the ODM-208 group
  concentration of testosterone in the tumors, relative to the ODM-208 group: 1/8

## Cn1c(CN2Cc3ccccc3C2)c(F)cc(CCC2CCN(S(C)(=O)=O)CC2)c1=O [compound 72]
[1]; adrenal glands of mice, vs control group
  secretion of progesterone in the adrenal glands (in words): significant inhibitory effect
[1]
  secretion of testosterone, progesterone and corticosterone in tumors and adrenal glands (in words): significantly inhibited
hERG channels
  IC50: > 30 µM
